Measurements: patent US8513232B2, “Substituted spirocyclic piperidine derivatives as histamine-3 (H3) receptor ligands” (Cephalon, Inc., priority 2008, dated 2013)
Like-named read-outs stand apart in the source and are kept apart here.

Columns and labels:
[1] = target: T1, rat histamine H3 receptor (Rattus norvegicus, UniProt Q9QYN8); assay: Rat H3 radioligand binding ([3H]-N-alpha-methylhistamine, SPA)
T1 construct: encoding the entire 445-amino-acid rat histamine H3 receptor; expressed in transfected cells; membrane preparation
T1 sequence (Q9QYN8 whole entry): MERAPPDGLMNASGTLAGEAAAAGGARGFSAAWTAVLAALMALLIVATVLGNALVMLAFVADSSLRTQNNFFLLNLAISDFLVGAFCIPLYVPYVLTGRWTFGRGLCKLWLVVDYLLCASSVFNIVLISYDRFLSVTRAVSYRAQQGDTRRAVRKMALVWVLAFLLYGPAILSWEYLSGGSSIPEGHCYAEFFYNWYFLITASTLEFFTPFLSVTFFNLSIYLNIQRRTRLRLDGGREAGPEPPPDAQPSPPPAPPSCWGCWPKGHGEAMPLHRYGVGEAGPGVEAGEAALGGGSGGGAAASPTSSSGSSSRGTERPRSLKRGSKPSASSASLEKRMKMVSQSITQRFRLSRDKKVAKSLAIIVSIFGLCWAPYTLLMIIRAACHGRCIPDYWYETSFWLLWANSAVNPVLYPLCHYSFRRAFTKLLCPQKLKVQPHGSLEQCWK
Source text: Cell line development and membrane preparation. The rat H3 receptor cDNA was PCR amplified from reverse-transcribed RNA pooled from rat thalamus, hypothalamus, striatum and prefrontal cortex with a sequence corresponding to by #338-1672 of Genbank file #NM_053506, encoding the entire 445-amino-acid rat histamine H3 receptor. This was engineered into the pIRES-neo3 mammalian expression vector, which was stably transfected into the CHO-A3 cell line (Euroscreen, Belgium), followed by clonal selection by limiting dilution. Cells were harvested and cell pellets were frozen (−80° C.). Cell pellets were resuspended in 5 mM Tris-HCl, pH 7.5 with […] and a cocktail of protease inhibitors (Complete Protease Inhibitior Tablets, Roche Diagnostics). Cells were disrupted using a polytron cell homogenizer and the suspension was centrifuged at 1000×g for 10 minutes at 4° C. The pellet was discarded and the supernatant centrifuged at 40,000×g for 30 min at 4° C. This membrane pellet was washed in membrane buffer containing 50 mM Tris-HCl, pH 7.5 with 0.6 mM EDTA, 5 mM MgCl2 and protease inhibitors, recentrifuged as above and the final pellet resuspended in membrane buffer plus 250 mM sucrose and frozen at −80° C.
(§1) Radioligand Binding. Membranes were resuspended in 50 mM Tris HCl (pH 7.4), 5 mM MgCl2, 0.1% BSA. The membrane suspensions (10 μg protein per well) were incubated in a 96 well microtiter plate with [^3H]-N-alpha-methylhistamine (approximately 1 nM final concentration), test compounds at various concentrations (0.01 nM-30 μM) and scintillation proximity beads (Perkin Elmer, FlashBlueGPCR Scintillating Beads) in a final volume of 80 μl for 4 hours at room temperature, protected from light. Non-specific binding was determined in the presence of 10 μM clobenpropit. Radioligand bound to receptor, and therefore in proximity to the scintillation beads, was measured using a MicroBeta scintillation counter.

[2] = target: T2, human H3 receptor (Homo sapiens, UniProt Q9Y5N1); assay: Human H3 radioligand binding ([3H]-N-alpha-methylhistamine, SPA)
T2 construct: expressed in transfected cells
T2 sequence (Q9Y5N1 whole entry): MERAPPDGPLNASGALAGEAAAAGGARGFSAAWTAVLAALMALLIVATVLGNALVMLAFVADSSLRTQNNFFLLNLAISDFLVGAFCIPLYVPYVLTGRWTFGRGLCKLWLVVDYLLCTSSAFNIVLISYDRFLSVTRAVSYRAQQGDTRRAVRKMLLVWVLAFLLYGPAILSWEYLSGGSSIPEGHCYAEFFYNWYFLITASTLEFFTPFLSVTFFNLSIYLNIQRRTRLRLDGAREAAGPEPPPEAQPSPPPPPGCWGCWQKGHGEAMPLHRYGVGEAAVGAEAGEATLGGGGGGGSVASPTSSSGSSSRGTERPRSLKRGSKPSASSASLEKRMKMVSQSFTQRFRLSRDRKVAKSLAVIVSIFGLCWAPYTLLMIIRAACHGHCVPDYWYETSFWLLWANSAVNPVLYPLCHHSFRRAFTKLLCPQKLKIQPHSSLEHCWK
Experimental: Methods: CHO cells stably expressing the human H3 receptor (GenBank: NM_007232) were harvested and cell pellets were frozen (−80° C.). Cell pellets were resuspended in 5 mM Tris-HCl, pH 7.5 with […] and a cocktail of protease inhibitors (Complete Protease Inhibitior Tablets, Roche Diagnostics). Cells were disrupted using a polytron cell homogenizer and the suspension was centrifuged at 1000×g for 10 minutes at 4° C. The pellet was discarded and the supernatant centrifuged at 40,000×g for 30 min at 4° C. This membrane pellet was washed in membrane buffer containing 50 mM Tris-HCl, pH 7.5 with 0.6 mM EDTA, 5 mM MgCl2 and protease inhibitors, recentrifuged as above and the final pellet resuspended in membrane buffer plus 250 mM sucrose and frozen at −80° C.
as §1

[3] = Table A, rat H3 binding, read-out: Rat Ki
[4] = Table A, human H3 binding, read-out: Human Ki
[5] = Rat H3 binding, Table B, Examples 136-362, read-out: rat H3 binding Ki
[6] = Human H3 binding, Table B, Examples 136-362, read-out: hum H3 binding Ki
[7] = rat H3 binding, Table D, read-out: Rat H3 Ki
[8] = human H3 binding, Table D, read-out: Human H3 Ki
[9] = Table C, rat H3 binding, read-out: Rat H3 Ki
[10] = Table C, human H3 binding, read-out: Human H3 Ki

CCOC(=O)c1cncc(-c2ccc3c(c2)COC2(CCN(C4CCC4)CC2)O3)c1 [Example 59]
Ki [1, 3]: < 200 nM
Ki [2, 4]: < 200 nM
melting point: 239.2 °C

OC1(c2ccc3c(c2)COC2(CCN(C4CCC4)CC2)O3)CCC1 [Example 501]
Ki ([1]; read-out: Rat H3 kI): < 200 nM
Ki ([2]; read-out: Human H3 Ki): < 200 nM
melting point: 64 to 66 °C

CNC(=O)c1cc(COc2ccc3c(c2)CCC2(CCN(C4CCC4)CC2)O3)ccn1 [Example 292]
Ki [1, 5]: < 200 nM
Ki [2, 6]: < 200 nM
melting point: 141 to 143 °C

c1ccc(Nc2ccc3c(c2)COC2(CCN(C4CCC4)CC2)O3)nc1 [Example 126]
Ki [1, 3]: < 200 nM
Ki [2, 4]: < 200 nM
melting point: 159 to 161 °C

CNC(=O)C1CCN(c2ccc3c(c2)COC2(CCN(C4CCC4)CC2)O3)CC1 [Example 453]
Ki ([1]; read-out: Rat H3 kI): < 200 nM
Ki ([2]; read-out: Human H3 Ki): < 200 nM
melting point: > 245 °C (dec.)

Cc1cccc(Oc2ccc3c(c2)CCC2(CCN(C4CCC4)CC2)O3)n1 [Example 268]
Ki [1, 5]: < 200 nM
Ki [2, 6]: < 200 nM
melting point: 213 to 215 °C

CC(=O)N[C@@H]1CCN(c2ccc3c(c2)COC2(CCN(C4CCC4)CC2)O3)C1 [Example 343]
Ki [1, 5]: < 200 nM
Ki [2, 6]: < 200 nM
melting point: 77.9 to 79.9 °C

O=C(c1ccc(-c2ccc3c(c2)CCC2(CCN(C4CCC4)CC2)O3)cc1)N1CCC[C@H](O)C1 [Example 212]
Ki [1, 5]: < 200 nM
Ki [2, 6]: < 200 nM
melting point: 82 to 83.3 °C

CN(C)C(=O)CCc1ccc2c(c1)CCC1(CCN(C3CCC3)CC1)O2 [Example 603]
Ki [1, 7]: < 200 nM
Ki [2, 8]: < 200 nM
melting point: 180 to 182 °C

CC(C)n1ccc(-c2ccc3c(c2)COC2(CCN(C4CCC4)CC2)O3)cc1=O [Example 758]
Ki [1, 7]: < 200 nM
Ki [2, 8]: < 200 nM
melting point: 218 to 220 °C

COc1ccnc(-c2ccc3c(c2)COC2(CCN(C4CCC4)CC2)O3)n1 [Example 483]
Ki ([1]; read-out: Rat H3 kI): < 200 nM
Ki ([2]; read-out: Human H3 Ki): < 200 nM
melting point: 100 to 102 °C

CC(C)S(=O)(=O)C1CCN(c2ccc3c(c2)COC2(CCN(C4CCC4)CC2)O3)CC1 [Example 656]
Ki [1, 7]: < 200 nM
Ki [2, 8]: < 200 nM
melting point: 142.6 to 145.1 °C

CCSCc1cc(-c2ccc3c(c2)COC2(CCN(C4CCC4)CC2)O3)c[nH]c1=O [Example 774]
Ki [1, 7]: < 200 nM
Ki [2, 8]: < 200 nM
melting point: 205 to 207 °C

c1cnc(Oc2ccc3c(c2)CCC2(CCN(C4CCC4)CC2)O3)cn1 [Example 415]
Ki [1, 9]: < 200 nM
Ki [2, 10]: < 200 nM
melting point: 256 to 258 °C

COC(=O)N1CCN(c2ccc3c(c2)CCC2(CCN(C4CCC4)CC2)O3)CC1 [Example 373]
Ki [1, 9]: < 200 nM
Ki [2, 10]: < 200 nM
melting point: 157 to 158 °C

CCS(=O)(=O)N1CCC(Oc2ccc3c(c2)CCC2(CCN(C4CCC4)CC2)O3)CC1 [Example 441]
Ki [1, 9]: < 200 nM
Ki [2, 10]: < 200 nM
melting point: 226 to 229 °C

OC1(c2ccc3c(c2)COC2(CCN(C4CCC4)CC2)O3)CCOCC1 [Example 477]
Ki ([1]; read-out: Rat H3 kI): < 200 nM
Ki ([2]; read-out: Human H3 Ki): < 200 nM
melting point: 157 to 159 °C

CNC(=O)c1ccc(-c2ccc3c(n2)COC2(CCN(C4CCC4)CC2)O3)cc1F [Example 133]
Ki [1, 3]: < 200 nM
Ki [2, 4]: < 200 nM
melting point: 172 to 173 °C

c1csc(-c2ccc3c(c2)COC2(CCN(C4CCC4)CC2)O3)n1 [Example 143]
Ki [1, 5]: < 200 nM
Ki [2, 6]: < 200 nM
melting point: 181 to 183 °C

CN(c1ccc2c(c1)COC1(CCN(C3CCC3)CC1)O2)c1ccccn1 [Example 144]
Ki [1, 5]: < 200 nM
Ki [2, 6]: < 200 nM
melting point: 216 to 220 °C

FC(F)(F)c1cccnc1N1CCN(c2ccc3c(c2)CCC2(CCN(C4CCC4)CC2)O3)CC1 [Example 367]
Ki [1, 9]: < 200 nM
Ki [2, 10]: < 200 nM
melting point: 138 to 139 °C

OC1CC2(CCN(C3CCC3)CC2)Oc2ccc(OCc3ccccc3)cc21 (stereo not drawn) [Example 190]
Ki [1, 5]: 200 to 1000 nM
Ki [2, 6]: < 200 nM
melting point: 69 to 71 °C
